Measurements as given in the NIST ThermoML archive (doi:10.1021/je060271a).
Numbers after ± are expanded uncertainties.

Conditions: 283.16 K, Liquid, Vibrating tube method

CCCC(=O)OCC(COC(=O)CCC)(COC(=O)CCC)COC(=O)CCC [pentaerythritol tetrabutyrate]
Conditions | mass density [kg/m3]
5025.9 kPa | 1062 ± 1.3
5026.2 kPa | 1062.1 ± 1.3
5026.4 kPa | 1061.9 ± 1.3
5026.6 kPa | 1061.9 ± 1.3
5037.7 kPa | 1062 ± 1.3
5052.7 kPa | 1062 ± 1.3
5084.5 kPa | 1061.9 ± 1.3
5099.4 kPa | 1062.1 ± 1.3
5117.2 kPa | 1062.1 ± 1.3
5132.1 kPa | 1062.1 ± 1.3
5146.8 kPa | 1062.1 ± 1.3
5164.5 kPa | 1062.1 ± 1.3
5180.2 kPa | 1062 ± 1.3
5195.4 kPa | 1062.1 ± 1.3
5213.6 kPa | 1062.2 ± 1.3
5229.7 kPa | 1062.1 ± 1.3
5245.8 kPa | 1062.1 ± 1.3
5261.4 kPa | 1062.2 ± 1.3
5277.3 kPa | 1062.1 ± 1.3
5296.5 kPa | 1062.2 ± 1.3
5312.6 kPa | 1062.2 ± 1.3
5328.5 kPa | 1062.1 ± 1.3
5347.8 kPa | 1062.1 ± 1.3
5364.8 kPa | 1062.2 ± 1.3
5381.7 kPa | 1062.1 ± 1.3
5398.7 kPa | 1062.3 ± 1.3
5419.8 kPa | 1062.2 ± 1.3
5436.6 kPa | 1062.3 ± 1.3
5450.9 kPa | 1062.3 ± 1.3
5465.9 kPa | 1062.2 ± 1.3
5510.3 kPa | 1062.3 ± 1.3
5516.6 kPa | 1062.3 ± 1.3
5521.7 kPa | 1062.3 ± 1.3
5526.9 kPa | 1062.3 ± 1.3
5532.8 kPa | 1062.3 ± 1.3
5538.2 kPa | 1062.2 ± 1.3
5543.2 kPa | 1062.3 ± 1.3
5548.7 kPa | 1062.2 ± 1.3
5553.9 kPa | 1062.3 ± 1.3
5560.3 kPa | 1062.2 ± 1.3
5565.4 kPa | 1062.2 ± 1.3
5570.9 kPa | 1062.4 ± 1.3
5577.1 kPa | 1062.3 ± 1.3
5582.3 kPa | 1062.3 ± 1.3
5587.5 kPa | 1062.3 ± 1.3
5592.9 kPa | 1062.4 ± 1.3
5599.3 kPa | 1062.2 ± 1.3
5604.6 kPa | 1062.4 ± 1.3
5610 kPa | 1062.4 ± 1.3
5616.4 kPa | 1062.4 ± 1.3
5621.6 kPa | 1062.3 ± 1.3
5627.3 kPa | 1062.3 ± 1.3
5632.6 kPa | 1062.3 ± 1.3
5639.2 kPa | 1062.3 ± 1.3
5644.4 kPa | 1062.3 ± 1.3
5649.9 kPa | 1062.3 ± 1.3
5655.3 kPa | 1062.3 ± 1.3
5661.7 kPa | 1062.4 ± 1.3
5667.2 kPa | 1062.2 ± 1.3
5674 kPa | 1062.4 ± 1.3
5679.3 kPa | 1062.4 ± 1.3
5684.7 kPa | 1062.3 ± 1.3
5690 kPa | 1062.3 ± 1.3
5696.8 kPa | 1062.3 ± 1.3
5702.1 kPa | 1062.4 ± 1.3
5707.9 kPa | 1062.3 ± 1.3
5713.6 kPa | 1062.5 ± 1.3
5720.3 kPa | 1062.4 ± 1.3
5725.5 kPa | 1062.5 ± 1.3
5731.2 kPa | 1062.4 ± 1.3
5736.6 kPa | 1062.5 ± 1.3
5743.3 kPa | 1062.3 ± 1.3
5749 kPa | 1062.4 ± 1.3
5754.4 kPa | 1062.4 ± 1.3
5761.1 kPa | 1062.4 ± 1.3
5766.6 kPa | 1062.4 ± 1.3
5773.7 kPa | 1062.5 ± 1.3
5779.1 kPa | 1062.4 ± 1.3
5803.1 kPa | 1062.5 ± 1.3
5808.7 kPa | 1062.4 ± 1.3
5814.4 kPa | 1062.5 ± 1.3
5821.5 kPa | 1062.5 ± 1.3
5827.2 kPa | 1062.4 ± 1.3
5833 kPa | 1062.4 ± 1.3
5839.6 kPa | 1062.5 ± 1.3
5845.5 kPa | 1062.5 ± 1.3
5851.5 kPa | 1062.4 ± 1.3
5857.2 kPa | 1062.5 ± 1.3
5864.2 kPa | 1062.5 ± 1.3
5869.9 kPa | 1062.5 ± 1.3
5876.8 kPa | 1062.5 ± 1.3
5882.3 kPa | 1062.4 ± 1.3
5888.4 kPa | 1062.6 ± 1.3
5894.6 kPa | 1062.4 ± 1.3
5901.3 kPa | 1062.5 ± 1.3
5907.2 kPa | 1062.5 ± 1.3
5913.3 kPa | 1062.5 ± 1.3
5919.5 kPa | 1062.5 ± 1.3
5926.4 kPa | 1062.5 ± 1.3
5932.3 kPa | 1062.6 ± 1.3
5938.5 kPa | 1062.6 ± 1.3
5944.6 kPa | 1062.5 ± 1.3
5951.6 kPa | 1062.5 ± 1.3
5957.7 kPa | 1062.5 ± 1.3
5963.8 kPa | 1062.5 ± 1.3
5971 kPa | 1062.5 ± 1.3
5977.1 kPa | 1062.7 ± 1.3
5983.3 kPa | 1062.6 ± 1.3
5989.3 kPa | 1062.6 ± 1.3
5996.6 kPa | 1062.6 ± 1.3
6002.8 kPa | 1062.6 ± 1.3
6009.4 kPa | 1062.5 ± 1.3
6016.2 kPa | 1062.6 ± 1.3
6022.5 kPa | 1062.7 ± 1.3
6029.9 kPa | 1062.5 ± 1.3
6036 kPa | 1062.6 ± 1.3
6042.3 kPa | 1062.6 ± 1.3
6048.4 kPa | 1062.6 ± 1.3
6056 kPa | 1062.7 ± 1.3
6062 kPa | 1062.6 ± 1.3
6068.3 kPa | 1062.6 ± 1.3
6075.9 kPa | 1062.6 ± 1.3
6082.1 kPa | 1062.6 ± 1.3
6088.5 kPa | 1062.6 ± 1.3
6095.2 kPa | 1062.7 ± 1.3
6100.5 kPa | 1062.6 ± 1.3
6106.9 kPa | 1062.6 ± 1.3
6114.5 kPa | 1062.7 ± 1.3
6120.9 kPa | 1062.6 ± 1.3
6127.1 kPa | 1062.6 ± 1.3
6134.7 kPa | 1062.6 ± 1.3
6140.7 kPa | 1062.6 ± 1.3
6147.1 kPa | 1062.7 ± 1.3
6153.9 kPa | 1062.7 ± 1.3
6161.5 kPa | 1062.6 ± 1.3
6167.9 kPa | 1062.6 ± 1.3
6174.6 kPa | 1062.7 ± 1.3
6182.6 kPa | 1062.6 ± 1.3
6188.8 kPa | 1062.7 ± 1.3
6195.4 kPa | 1062.8 ± 1.3
6202.1 kPa | 1062.6 ± 1.3
6210.1 kPa | 1062.8 ± 1.3
6216.6 kPa | 1062.6 ± 1.3
6223.4 kPa | 1062.6 ± 1.3
6229.9 kPa | 1062.6 ± 1.3
6237.5 kPa | 1062.7 ± 1.3
